From patent US7718700B2, “Growth factor-binding compounds and methods of use” (Yale University, priority 2004, dated 2010)
Where two headings read alike, the source gives them in different places.

What was measured:
[1] = tested on: A-549 xenografts; test: CD31 IHC microvessel count in A-549 xenograft tumors; format: in vivo, nude mice; settings: 5 mg/Kg, tumors processed two hours after last i.p. injection
Description: FIGS. 7A-7B illustrates CD31 IHC staining as described under Materials and Methods for tumors processed two hours after the last i.p. injection for a control (FIG. 7A) and GFB204 (FIG. 7B). Quantification of microvessels density (400×) was determined as described under Materials and Methods. SE, standard error. FIGS. 7A and 7B Microvessel Count; FIG. 7A=11.3±1.9; FIG. 7B=2.6±0.9.
IHC study. On the termination day of antitumor experiments, the tumors were extracted and fixed in 10% neutral buffered formalin for 6 hours. After fixation, the tissue samples were processed into paraffin blocks. Tissue sections (4 μm thick) were obtained from the parablocks and stained with hematoxylin and eosin (H&E) using standard histological techniques. Tissue sections were also subjected to immunostaining for CD31 (BD Biosciences, San Diego, Calif.) using the avidin biotin peroxidase complex technique (Blaskovich, M. A. et al. Nat Biotechnol, 2000, 18:1065-70). Mouse monoclonal antibody was used at 1:50 dilution, following microwave antigen retrieval (four cycles of 5 minutes each on high in 0.1M citrate buffer).

[2] = tested on: VEGFR (Flk-1/KDR); test: VEGF-stimulated Flk-1 tyrosine phosphorylation in Flk-1/NIH 3T3 cells; format: cell-based, human
Description: (§1) Inhibition of growth factor-dependent receptor tyrosine phosphorylation by GFBs. Starved Flk-1/KDR-overexpressing NIH 3T3 cells (Flk-1/NIH 3T3) or NIH 3T3 cells were pretreated with GFBs for 5 min before stimulation with VEGF (50 ng/ml) or PDGF-BB (10 ng/ml) for 10 min, respectively. The cells were then harvested and lysed, and proteins from the lysates were separated by SDS-PAGE and transferred to nitrocellulose. Membranes then were either immunoblotted with anti-phospho-VEGFR2 antibody (Cell Signaling Technologies, Beverly, Mass.) for activated Flk-1 or anti-phospho-tyrosine antibody (4G10, Upstate Biotechnology, Lake Placid, N.Y.) for activated PDGFR. Phosphotyrosine Flk-1 and PDGFR were quantified using a Bio-Rad Model GS-700 Imaging Densitometer (Bio-Rad Laboratories, Inc, Hercules, Calif.) (Blaskovich, M. A. et al. Nat Biotechnol, 2000, 18:1065-70).

[3] = tested on: A-549 xenografts; test: Antitumor activity in the nude mouse A-549 tumor xenograft model; format: in vivo, nude mice; settings: for average tumor size: 3 weeks
Description: FIG. 6 illustrates that GFB204 inhibits A-549 xenografts growth in nude mice (FIG. 6). A-549 cells were implanted into the flanks of nude mice and when the tumors reached an average size of about 100 mm^3, the mice were randomized and treated either with vehicle (♦) or GFB204 at 1 mg/kg (▪) and 5 mg/kg (●), and tumor sizes measured as described under Materials and Methods. Tumors were processed two hours after the last i.p. injection for CD31 IHC staining as described under Materials and Methods.
Antitumor activity in the nude mouse tumor xenograft model. Nude mice (Charles River, Wilmington, Mass.) were maintained in accordance with the Institutional Animal Care and Use Committee (IACUC) procedures and guidelines. A-549 cells were harvested and resuspended in PBS, then injected s.c. into the right and left flanks (10×10^6 cells per flank) of 8 week old female nude mice as reported previously (Sun, J. et al. Cancer Res, 1999, 59:4919-26). When tumors reached about 100 mm^3, animals were dosed i.p. with 0.2 ml solution once daily. Control animals received a vehicle whereas treated animals were injected with GFB204 (1 or 5 mg/kg/day). The tumor volumes were determined by measuring the length (l) and the width (w) and calculating the volume (V=lw^2/2) as described previously (Sun, J. et al. Cancer Res, 1999, 59:4919-26). Statistical significance between control and treated animals were evaluated using Student's t-test.

[4] = tested on: PDGFR; test: PDGF-stimulated PDGFR tyrosine phosphorylation in NIH 3T3 cells; format: cell-based, mouse; settings: NIH 3T3 cells; read-out: IC50 PDGFR tyrosine phosphorylation (PDGF)
Description: as §1

[5] = tested on: adult human brain endothelial cells; test: VEGF-dependent human brain endothelial cell migration (modified Boyden chamber); format: cell-based; settings: VEGF 20 ng/ml, 18 hours, read-out: IC50 VEGF-induced endothelial cell migration
Description: Migration of adult human brain endothelial cells was evaluated using a modified Boyden chamber assay as described in Materials and Methods. Vehicle control (FIG. 5A) or GFB204 (FIG. 5B) was added to 2% FBS-containing medium in the outer chamber, and the number of migrated cells to the VEGF-containing lower chamber was determined after an 18-hour incubation (FIG. 5C).
Human brain endothelial cell migration assay. Migration of adult human brain endothelial cells was evaluated using a modified Boyden chamber assay (BD BioCoat Matrigel Invasion Chamber) (Papadimitriou, E. et al. Biochem Biophys Res Commun, 2001, 282:306-13). The cells were plated at 4×10^4/ml onto an 8 μm pore size membrane coated with a thin layer of Matrigel basement membrane matrix. GFB204 was added to the medium in the outer chamber and the cells were cultured for 18 hours under VEGF-dependent condition in the lower chamber (VEGF 20 ng/ml). Non-invading cells were removed from the upper surface with a cotton swab. Membrane inserts were then fixed with 4% paraformaldehyde and stained with Crystal-Violet dye. The number of cells that migrated to the undersurface of the filters, was quantified by counting the cells migrated in randomly selected microscopic fields (10×). Samples were analyzed for significant differences using a Student's t-test for independent samples.

For `CCCCOc1c2cc(C(=O)Nc3cc(C(=O)O)cc(C(=O)OCc4ccccc4)c3)cc1Cc1cc(C(=O)Nc3cc(C(=O)O)cc(C(=O)OCc4ccccc4)c3)cc(c1OCCCC)Cc1cc(C(=O)Nc3cc(C(=O)O)cc(C(=O)OCc4ccccc4)c3)cc(c1OCCCC)Cc1cc(C(=O)Nc3cc(C(=O)O)cc(C(=O)OCc4ccccc4)c3)cc(c1OCCCC)C2` [GFB204], the “microvessels per field (400×), CD31 staining” value [1] was 2.6±0.9, the IC50 ([2]; VEGF 50 ng/ml stimulated Flk-1 tyrosine phosphorylation, read-out: IC50 (μM) VEGFR) was 0.48 ± 0.31 µM and the IC50 ([2]; read-out: IC50 VEGFR tyrosine phosphorylation (VEGF)) was 0.48 µM. For the same compound, the average tumor size ([3]; 1 mg/kg i.p. once daily) was 650±114 mm^3, the tumor growth inhibition ([3]; 1 mg/kg, not statistically significant) was 15% and the average tumor size ([3]; 5 mg/kg i.p. once daily) was 284±108 mm^3. The tumor growth inhibition ([3]; 5 mg/kg, statistically significant (p<0.05)) was 73%, the IC50 [4] was 190 nM and the IC50 [5] was 600 nM.
